Laboratory results taken from patent US20220117958A1, “COMPOSITIONS AND METHODS FOR INHIBITING ACSS2” (THE TRUSTEES OF THE UNIVERSITY OF PENNSYLVANIA, priority 2018, published 2022).
Values after ≈ are worked out from the molar mass of the structure shown. Values joined by “and” are separate entries in the source; they are usually repeats but may differ in a detail not shown here. Identical values can stand only once. “Also recorded” adds a separate entry of the source. Marks after values point to notes of the source that are not given here.

How the values were obtained:
[1] = Microsomal stability assay (half-life), rat; assay type: in vitro ADME; conditions: Rat (SD) microsomes, read-out: Microsomal stability T1/2
From the text: (§1) Table 20 provides results of in vitro and in vivo pharmacokinetics performed for each of the represented compounds.

[2] = In vivo PK, oral gavage, plasma; set-up: species or system Rat (SD); conditions: SD, rat, plasma, po, 5 mg/kg
From the text: as §1
(§2) Tables 4 and 5 depict the summary of rat plasma sample concentrations after administration of ADG I-204. FIG. 6 provides a summary of rat plasma and brain concentrations.

[3] = Turbidity-based aqueous solubility; assay type: physicochemical; conditions: aqueous solution (composition not given), kinetic from dmso stock, read-out: highest soluble concentration
From the text: as §1

[4] = In vivo PK, IV dose, Terminal - brain (brain availability); set-up: species or system Rat (SD); conditions: for Brain concentration, mean / Brain concentration, individual animal: IV 1 mg/kg
Experimental: Table 3 and FIG. 5 depict the brain availability of ADG I-204, ADG I-205, ADG I-206, and ADG I-207 after IV administration of 1 mg/kg dose.

[5] = In vivo PK, oral gavage, plasma; set-up: species or system Rat (SD); conditions: Rat, PO 5 mg/kg, BQL limit 1.00 ng/mL, listed as ADG I-205, 5 mg/kg
[6] = Protein binding via Rapid Equilibrium Dialysis - plasma; assay type: in vitro ADME; conditions: Rat (SD) plasma, 2 μM
From the text: as §1

[7] = Microsomal stability assay (half-life), mouse; assay type: in vitro ADME; conditions: Mouse (CD1) microsomes, read-out: Microsomal stability T1/2
From the text: as §1

[8] = test system: H3K9ac; test: Western blot, differentiated CAD cell lysates, H3K9ac levels; assay type: cell-based; conditions: differentiated CAD cells, DMSO = 100.00%
From the text: as §1

[9] = test system: primary hippocampal neurons; test: RNA-seq, acetate-induced transcription in primary hippocampal neurons; assay type: cell-based, mouse
Experimental: Alcohol and acetate have pleiotropic effects on brain circuitry and metabolism. Utilizing isolated mouse primary hippocampal neurons, the transcriptional response to supraphysiological levels of acetate (cells were cultured for one week after isolation and subsequently treated with 5 mM acetate for 24 hours) that mimics exogenous acetate influx during alcohol intake was investigated. Further, to determine the specific role of ACSS2 in transcriptional responses to acetate, a highly specific small molecule inhibitor of ACSS2 (ACSS2i ADG-205: C20H18N4O2S2, FIG. 15A) was employed.

[10] = In vivo PK, IV dose, plasma; set-up: species or system Rat (SD); conditions: for Plasma concentration, mean / Plasma concentration, individual animal: IV 1 mg/kg
From the text: as §1, §2

[11] = test system: mice; test: Object-location memory paradigm; assay type: in vivo; conditions: recall phase, versus DMSO injected
Experimental: FIG. 29 depicts a graph showing the time spent interacting with an individual object relative to the total time spent interacting with all objects.
To assess hippocampus-dependent spatial memory, an object-location memory paradigm is used. Animals explore three different objects during training, and long-term memory is tested by re-exposure 24 hours later with one object moved to a different location. In training, control and inhibitor treated mice show no difference in exploration. During memory retrieval, control mice show increased exploration of the object that had been moved. By contrast, mice treated with an ACSS2 inhibitor are impaired in spatial object memory and display a lower discrimination index.
The conditions were blind as it relates to the injection (DMSO versus ADG-205c) and the locations of objects (those in the same location versus novel location). An online stopwatch interface was used that allowed use 3 simultaneous timer, one for each object. Each timer was stopped individually as the mouse interacted with a given object. […] Some mice remained stationary for substantial amounts of time relative to the others—some appearing apprehensive huddled in a corner, some spending time grooming.

[12] = Microsomal stability assay (half-life), human; assay type: in vitro ADME; conditions: Human microsomes, read-out: Microsomal stability T1/2
From the text: as §1

[13] = test system: mice; test: Fear reconsolidation behavioral study; assay type: in vivo; conditions: 2 mg/kg immediately before and 30 min after each of 4 dosed cue-recall sessions, versus DMSO
Experimental: 3 CS-US pairings were performed: tone is 30 seconds long co-terminating with 2 second, 1 mA shock. No drug or vehicle was administered.
Subsequent to the acquisition, and following the schedule provided, above, recall and reconsolidation sessions ensued. The cage was altered in context (floor board, walls, vanilla scent). The same paradigm as acquisition was used for reconsolidation and recall exposures but no shock was delivered. The following procedure was followed: (1) 2 min habituation to box; (2) 30 sec tones; (3) 1 min it is.
Injections of ADG-205c or DMSO at dosage of 2 mg/kg are administered at the following time points: Immediately before reconsolidation/recall; and then 30 minutes following reconsolidation/recall.

half-life at 2 μM [1]: 11.6 min
concentration at 0.25 h ([2]; Rat (SD), 0.25 hr, BQL = below quantitation limit (1.00 ng/mL), read-out: Plasma concentration, mean): 83.5 ng/mL
concentration at 0.5 h ([2]; Rat (SD), 0.5 hr, BQL = below quantitation limit (1.00 ng/mL), read-out: Plasma concentration, mean): 371 ng/mL
concentration at 1 h ([2]; Rat (SD), 1 hr, BQL = below quantitation limit (1.00 ng/mL), read-out: Plasma concentration, mean): 641 ng/mL
concentration at 4 h ([2]; Rat (SD), 4 hr, BQL = below quantitation limit (1.00 ng/mL)): 693 ng/mL
concentration at 8 h ([2]; Rat (SD), 8 hr, BQL = below quantitation limit (1.00 ng/mL), read-out: Plasma concentration, mean): 354 ng/mL
concentration at 24 h ([2]; Rat (SD), 24 hr, BQL = below quantitation limit (1.00 ng/mL), read-out: Plasma concentration, mean): 3.06 ng/mL
concentration at 1 h ([2]; Rat, 1.00 hr, BQL limit 1.00 ng/mL, read-out: Plasma concentration, individual animal): 466 ng/mL
solubility [3]: 5 µM (≈ 2.05 µg/mL)
Brain concentration, mean ([4]; Rat (SD), 4 hr, BQL limit 10.0 ng/g (204, 206), 20.0 ng/g (205, 207), listed as ADG I-205, 1 mg/kg): 23 ng/g
Brain concentration, mean ([4]; Rat (SD), 8 hr, BQL limit 10.0 ng/g (204, 206), 20.0 ng/g (205, 207)): BQL
Brain concentration, mean ([4]; Rat (SD), 24 hr, BQL limit 10.0 ng/g (204, 206), 20.0 ng/g (205, 207)): BQL
Brain concentration, individual animal ([4]; Rat, 0.0830 hr, third animal received only 70% of the test article, listed as ADG I-205, 1 mg/kg): 544 ng/g and 487 ng/g and 213*** ng/g
Brain concentration, individual animal ([4]; Rat, 1.00 hr, listed as ADG I-205, 1 mg/kg): 102 ng/g and 171 ng/g
Brain concentration, individual animal ([4]; Rat, 4.00 hr, BQL limit 10.0 ng/g (204, 206), 20.0 ng/g (205, 207), listed as ADG I-205, 1 mg/kg): BQL
Brain concentration, individual animal ([4]; Rat, 8.00 hr, BQL limit 10.0 ng/g (204, 206), 20.0 ng/g (205, 207)): BQL
Brain concentration, individual animal ([4]; Rat, 24.0 hr, BQL limit 10.0 ng/g (204, 206), 20.0 ng/g (205, 207)): BQL
concentration at 0.083 h ([4]; SD, rat, brain, iv, 1 mg/kg, Rat (SD), 0.083 hr): 415 ng/g
concentration at 1 h ([4]; SD, rat, brain, iv, 1 mg/kg, Rat (SD), 1 hr, read-out: Brain concentration, mean): 135 ng/g
concentration at 4 h ([4]; SD, rat, brain, iv, 1 mg/kg, Rat (SD), 4 hr, BQL limit 10.0 ng/g (204, 206), 20.0 ng/g (205, 207), read-out: Brain concentration, mean): 23.4 ng/g
concentration at 1 h ([4]; SD, rat, brain, iv, 1 mg/kg, Rat, 1.00 hr, read-out: Brain concentration, individual animal): 132 ng/g
concentration at 4 h ([4]; SD, rat, brain, iv, 1 mg/kg, Rat, 4.00 hr, BQL limit 10.0 ng/g (204, 206), 20.0 ng/g (205, 207), read-out: Brain concentration, individual animal): 23.4 ng/g
Plasma concentration, individual animal ([5]; 0.250 hr): 30.4 ng/mL and 73.0 ng/mL and 147 ng/mL
Plasma concentration, individual animal ([5]; 0.500 hr): 145 ng/mL and 298 ng/mL and 669 ng/mL
Plasma concentration, individual animal ([5]; 1.00 hr): 550 ng/mL and 906 ng/mL
Plasma concentration, individual animal ([5]; 4.00 hr): 710 ng/mL and 430 ng/mL and 938 ng/mL
Plasma concentration, individual animal ([5]; 8.00 hr): 531 ng/mL and 235 ng/mL and 297 ng/mL
Plasma concentration, individual animal ([5]; 24.0 hr): 3.51 ng/mL and 1.48 ng/mL and 4.19 ng/mL
Protein binding, plasma: % Protein free [6]: 0.2915 % Protein free
half-life at 2 μM [7]: 4.72 min
Plasma concentration, mean ([10]; Rat (SD), 8 hr, terminal, listed as ADG I-205, 1 mg/kg): 29 ng/mL
Plasma concentration, mean ([10]; Rat (SD), 24 hr, terminal, BQL limit 1.00 ng/mL (ADG I-205: 2.00 ng/mL), 1 mg/kg): 3 ng/mL
Plasma concentration, individual animal ([10]; Rat, 1.00 hr, terminal, listed as ADG I-205, 1 mg/kg): 895 ng/mL and 1190 ng/mL
Plasma concentration, individual animal ([10]; Rat, 4.00 hr, terminal, BQL limit 1.00 ng/mL (ADG I-205: 2.00 ng/mL), 1 mg/kg): 187 ng/mL and 92.3 ng/mL
Plasma concentration, individual animal ([10]; Rat, 8.00 hr, terminal, BQL limit 1.00 ng/mL (ADG I-205: 2.00 ng/mL), 1 mg/kg): 27.0 ng/mL and 31.9 ng/mL
Plasma concentration, individual animal ([10]; Rat, 24.0 hr, terminal, BQL limit 1.00 ng/mL (ADG I-205: 2.00 ng/mL), 1 mg/kg): BQL
concentration at 0.083 h ([10]; SD, rat, plasma, iv, 1 mg/kg, Rat (SD), 0.083 hr, terminal, read-out: Plasma concentration, mean): 1630 ng/mL
concentration at 0.5 h ([10]; SD, rat, plasma, iv, 1 mg/kg, Rat (SD), 0.500 hr, not a terminal time point (animals 4, 5 and 6)): 3790 ng/mL
concentration at 1 h ([10]; SD, rat, plasma, iv, 1 mg/kg, Rat (SD), 1 hr, terminal, read-out: Plasma concentration, mean): 1040 ng/mL
concentration at 4 h ([10]; SD, rat, plasma, iv, 1 mg/kg, Rat (SD), 4 hr, terminal, read-out: Plasma concentration, mean): 140 ng/mL
concentration at 8 h ([10]; SD, rat, plasma, iv, 1 mg/kg, Rat (SD), 8 hr, terminal, read-out: Plasma concentration, mean): 29.1 ng/mL
concentration at 24 h ([10]; SD, rat, plasma, iv, 1 mg/kg, Rat (SD), 24 hr, terminal, BQL limit 1.00 ng/mL (ADG I-205: 2.00 ng/mL), read-out: Plasma concentration, mean): 2.63 ng/mL
concentration at 1 h ([10]; SD, rat, plasma, iv, 1 mg/kg, Rat, 1.00 hr, terminal, read-out: Plasma concentration, individual animal): 1030 ng/mL
concentration at 8 h ([10]; SD, rat, plasma, iv, 1 mg/kg, Rat, 8.00 hr, terminal, BQL limit 1.00 ng/mL (ADG I-205: 2.00 ng/mL), read-out: Plasma concentration, individual animal): 28.5 ng/mL
concentration at 24 h ([10]; SD, rat, plasma, iv, 1 mg/kg, Rat, 24.0 hr, terminal, BQL limit 1.00 ng/mL (ADG I-205: 2.00 ng/mL), read-out: Plasma concentration, individual animal): 2.63 ng/mL
half-life at 2 μM [12]: 27.8 min
Structure (SMILES): COCCNC(=O)Nc1ccc2nc(-c3cccs3)c(-c3cccs3)nc2c1 [ADG-205c, 1-(2,3-di(thiophen-2-yl)quinoxalin-6-yl)-3-(2-methoxyethyl)urea]
H3K9ac levels normalized to H3 and DMSO control ([8]; 1 uM): 21.62%
H3K9ac levels normalized to H3 and DMSO control ([8]; 5 uM): 17.18%
H3K9ac levels normalized to H3 and DMSO control ([8]; 10 uM): 14.26%
H3K9ac levels normalized to H3 and DMSO control ([8]; 20 uM): 21.52%
H3K9ac levels normalized to H3 and DMSO control ([8]; 50 uM): 29.67%
H3K9ac levels normalized to H3 and DMSO control ([8]; 100 uM): 16.42%
Number of the 3613 acetate-induced genes that fail to be upregulated in the presence of inhibitor ([9]; 5 mM acetate, 24 hours, RNA-seq): 2107 genes
Slc17a7 induction upon acetate treatment ([9]; acetate, ACSS2 inhibited): induction was diminished
Acetate induction of ACSS2 target genes with alcohol-induced H3K9ac ([9]; hippocampal neurons ex vivo, acetate): blocks this gene induction
Acetate induction of ACSS2 target genes with alcohol-induced H3K27ac ([9]; hippocampal neurons ex vivo, acetate, listed as ACSS2i): failed to be induced; also recorded: blocks this gene induction
Regulation of acetate-induced genes by inhibitor in the absence of acetate ([9]; no acetate): not regulated
Plasma concentration, individual animal ([10]; Rat, 0.0830 hr, terminal, third animal received only 70% of the test article, listed as ADG I-205, 1 mg/kg): 2310 ng/mL and 1700 ng/mL and 865*** ng/mL
Plasma concentration, individual animal ([10]; Rat, 0.500 hr, not terminal (animals 4, 5 and 6), listed as ADG I-205, 1 mg/kg): 8520** ng/mL and 1380 ng/mL and 1470 ng/mL
Preference for object moved to novel location (time interacting with object relative to all objects) [11]: very little preference for one object
Fear response (freezing) after reconsolidation sessions [13]: observable reduced fear response
